Laboratory results published in patent EP4778922A1, “BICYCLIC COMPOUND, AND PREPARATION METHOD THEREFOR AND PHARMACEUTICAL USE THEREOF” (Shanghai Jeyou Pharmaceutical Co., Ltd., priority 2023, dated 2025).

tested on: not listed separately; experiment: Mouse pharmacokinetic test; format: in vivo, ICR mice; conditions: in vivo, 30 mg/kg, PO-30mpk
Method: Formulation preparation: The dosing solutions were prepared on the day of administration.
Six healthy male naive ICR mice weighing 25-30 g were selected and divided into two groups (intravenous and oral groups), with three mice in each group, and administered a single dose. […] Feeding was resumed 4 h after administration. Timing was initiated following intravenous and oral administration. […] The collected whole blood was briefly vortexed twice for mixing, placed on wet ice, and centrifuged at 4°C and 8000 rpm for 5 min within 1 h. The supernatant plasma was collected and stored at -80°C until processing and analysis. Table 3: Pharmacokinetics in mice

AUC(0-inf) | Cmax | half-life | Structure (SMILES)
447 µg·h/mL | 62800 ng/mL | 2.2 h | CC(C)(c1ccc(-c2cccc(OCc3ccnc(P(C)(C)=O)n3)c2)cc1)c1cc(Cl)c(OCCCl)c(C#N)c1 [Compound 6]
316 µg·h/mL | 31000 ng/mL | 5.4 h | CC(C)(c1ccc(N2CCC(Oc3ccnc(P(C)(C)=O)n3)CC2)cc1)c1cc(Cl)c(OCCCl)c(C#N)c1 [Compound 10]

same assay, conditions: in vivo, 30 mg/kg, PO-30mpk, read-out: Tmax

Tmax | Structure (SMILES)
2.7 h | CC(C)(c1ccc(-c2cccc(OCc3ccnc(P(C)(C)=O)n3)c2)cc1)c1cc(Cl)c(OCCCl)c(C#N)c1 [Compound 6]
3.3 h | CC(C)(c1ccc(N2CCC(Oc3ccnc(P(C)(C)=O)n3)CC2)cc1)c1cc(Cl)c(OCCCl)c(C#N)c1 [Compound 10]

same assay, conditions: plasma, 30 mg/kg, PO-30mpk

Structure (SMILES) | AUC(0-inf) | Cmax | half-life
CC(C)(c1ccc(-c2ccc(OCc3ccnc(P(C)(C)=O)n3)cc2)cc1)c1cnc2c(cnn2CCCl)c1 [Compound 42] | 422 µg·h/mL | 34300 ng/mL | 4.42 h

same assay, conditions: plasma, 30 mg/kg, PO-30mpk, read-out: Tmax

Structure (SMILES) | Tmax
CC(C)(c1ccc(-c2ccc(OCc3ccnc(P(C)(C)=O)n3)cc2)cc1)c1cnc2c(cnn2CCCl)c1 [Compound 42] | 3.33 h

same assay, conditions: plasma, po, 30 mg/kg, PO-30mpk

Structure (SMILES) | AUC(0-inf) | Cmax | half-life
CC(C)(c1ccc(-c2ccc(/C=C/c3ccnc(P(C)(C)=O)n3)cc2)cc1)c1cc(Cl)c(OCCCl)c(C#N)c1 [Compound 228] | 242 µg·h/mL | 14500 ng/mL | 6 h

same assay, conditions: plasma, po, 30 mg/kg, PO-30mpk, read-out: Tmax

Structure (SMILES) | Tmax
CC(C)(c1ccc(-c2ccc(/C=C/c3ccnc(P(C)(C)=O)n3)cc2)cc1)c1cc(Cl)c(OCCCl)c(C#N)c1 [Compound 228] | 4 h

tested on: 22RV1 cells; experiment: Cell proliferation inhibition assay in 22RV1 cells (CellTiter-Glo, 7 days); format: cell-based, human; conditions: Homo sapiens, 22Rv1, 168 h
Method: • 1. The human prostate cancer cell lines 22RV1 and LNCaP were purchased from ATCC. […] The cell concentration was adjusted to an appropriate concentration (determined based on the results of cell density optimization experiments), and the cells were seeded into a 96-well plate. A 100 µL cell suspension was added, resulting in 3000 cells per well. […] On the second day, for 22Rv1 cells, test compounds at different concentrations were added, and the cells were incubated at 37°C in a 5% CO2 incubator for 7 days; for LNCaP cells, test compounds at different concentrations were added first, and after 1 hour of treatment, 0.2 nM DHT was added. The cells were then incubated at 37°C in a 5% CO2 incubator for 7 days. • 4. After the incubation period, a volume of CellTiter-Glo detection reagent equal to the volume of the culture medium was added to each well. The plate was shaken and mixed thoroughly for 5 minutes, then incubated at room temperature for 10 minutes. Readings were taken using a PerkinElmer EnVision microplate reader. • 5.
The IC50 curve was fitted and the IC50 value was calculated using the software GraphPad Prism 8 with the calculation formula XY-analysis/Nonlinear regression (curve fit)/Dose response-Inhibition/log (inhibitor) vs. response-Variable slope (four parameters).

Structure (SMILES) | IC50
CC(C)(c1ccc(-c2ccc(OCc3ccnc(N4CC(S(=N)(=O)C5CC5)C4)n3)cc2)cc1)c1cc(Cl)c(OCCCl)c(C#N)c1 (racemic) [Compound 295] | 330 nM
CC(C)(c1ccc(-c2cnc(OCc3ccnc(N4CC(S(C)(=N)=O)C4)n3)cn2)cc1)c1cc(Cl)c(OCCCl)c(C#N)c1 (racemic) [Compound 323] | 570 nM
CC(C)(c1ccc(-c2cnc(OCc3ccnc(N4CC(S(=N)(=O)C5CC5)C4)n3)cn2)cc1)c1cc(Cl)c(OCCCl)c(C#N)c1 (racemic) [Compound 350] | 460 nM
CC(C)(c1ccc(-c2ccc(OCc3ccnc(N4CC5(C4)CS(=O)(=O)C5)n3)cc2)cc1)c1cc(Cl)c(OCCCl)c(C#N)c1 [Compound 24] | 1030 nM
CC(C)(c1ccc(-c2ccc(OCc3ccnc(N4CC(OCCS(C)(=O)=O)C4)n3)cc2)cc1)c1cc(Cl)c(OCCCl)c(C#N)c1 [Compound 160] | 230 nM

same assay, conditions: Homo sapiens, 168 h

IC50 | Structure (SMILES)
1070 nM | CC(C)(c1ccc(-c2ccc(OCc3ccnc(S(C)(=O)=O)n3)cc2)cc1)c1cc(Cl)c(OCCCl)c(C#N)c1 [Compound 1]
1380 nM | CC(C)(c1ccc(-c2cccc(OCc3ccnc(S(C)(=O)=O)n3)c2)cc1)c1cc(Cl)c(OCCCl)c(C#N)c1 [Compound 4]
1350 nM | CC(C)(c1ccc(-c2ccc(OCc3ccnc(P(C)(C)=O)n3)cn2)cc1)c1cc(Cl)c(OCCCl)c(C#N)c1 [Compound 15]
1460 nM | CC(C)(c1ccc(-c2ccc(OCc3ccnc(N=S4(=O)CCCC4)n3)nc2)cc1)c1cc(Cl)c(OCCCl)c(C#N)c1 [Compound 18]
860 nM | CC(C)(c1ccc(-c2ccc(OCc3ccnc(N=S4(=O)CCOCC4)n3)nc2)cc1)c1cc(Cl)c(OCCCl)c(C#N)c1 [Compound 19]
340 nM | CC(C)(c1ccc(-c2ccc(C#Cc3ccnc(N=S4(=O)CCCC4)n3)cc2)cc1)c1cc(Cl)c(OCCCl)c(C#N)c1 [Compound 21]
840 nM | CC(C)(c1ccc(-c2cnc(OCc3ccnc(N4CC5(COC5)C4)n3)nc2)cc1)c1cc(Cl)c(OCCCl)c(C#N)c1 [Compound 35]
1350 nM | CC(C)(c1ccc(-c2cnc(OCc3ccnc(N=S4(=O)CCCC4)n3)nc2)cc1)c1cc(Cl)c(OCCCl)c(C#N)c1 [Compound 36]
300 nM | CC(C)(c1ccc(-c2ccc(OCc3ccnc(N=S4(=O)CCOCC4)n3)cc2)cc1)c1cc(Cl)c(OCCCl)c(C#N)c1 [Compound 43]
990 nM | CC(C)(c1ccc(-c2ccc(OCc3ccnc(N4CC5(COC5)C4)n3)cc2)cc1)c1cnc2c(cnn2CCCl)c1 [Compound 45]
1420 nM | CC(C)(c1ccc(-c2ccc(OCc3ccnc(N4CC(O)C4)n3)cc2)cc1)c1cc(Cl)c(OCCCl)c(C#N)c1 [Compound 54]
290 nM | CC(C)(c1ccc(-c2ccc(OCC3CCOCC3)cc2)cc1)c1cc(Cl)c(OCCCl)c(C#N)c1 [Compound 74]
1470 nM | CC(C)(c1ccc(-c2ccc(OC3CCN(c4ccnc(N5CC6(COC6)C5)n4)CC3)cc2)cc1)c1cc(Cl)c(OCCCl)c(C#N)c1 [Compound 77]
710 nM | CC(C)(c1ccc(-c2ccc(OC3CCN(c4ccnc(N5CC6(C5)CS(=O)(=O)C6)n4)CC3)cc2)cc1)c1cc(Cl)c(OCCCl)c(C#N)c1 [Compound 78]
110 nM | CC(C)(c1ccc(-c2ccc(OCC3CC(CN4CC5(C4)CS(=O)(=O)C5)C3)cc2)cc1)c1cc(Cl)c(OCCCl)c(C#N)c1 (stereo not drawn) [Compound 80]
860 nM | C[S+]([O-])c1nccc(COc2ccc(-c3ccc(C(C)(C)c4cc(Cl)c(OCCCl)c(C#N)c4)cc3)cc2)n1 (stereo not drawn) [Compound 81]
1050 nM | CC(C)(c1ccc(-c2ccc(OCc3ccnc(N4CC5(C4)CS(=O)(=O)C5)n3)cn2)cc1)c1cc(Cl)c(OCCCl)c(C#N)c1 [Compound 84]
630 nM | CC(C)(c1ccc(-c2ccc(OCc3ccnc(N=S4(=O)CCNCC4)n3)cn2)cc1)c1cc(Cl)c(OCCCl)c(C#N)c1 [Compound 86]
1320 nM | CC1(NS(C)(=O)=O)CN(c2nccc(COc3ccc(-c4ccc(C(C)(C)c5cc(Cl)c(OCCCl)c(C#N)c5)cc4)cc3)n2)C1 [Compound 90]
1010 nM | CN(C1CN(c2nccc(COc3ccc(-c4ccc(C(C)(C)c5cc(Cl)c(OCCCl)c(C#N)c5)cc4)cc3)n2)C1)S(C)(=O)=O [Compound 93]
920 nM | CC(C)(c1ccc(-c2ccc(OCc3ccnc(N4CC5(CNC5)C4)n3)cc2)cc1)c1cc(Cl)c(OCCCl)c(C#N)c1 [Compound 104]

IC50 | Structure (SMILES)
300 nM | CC(C)(c1ccc(-c2ccc(OCc3ccnc(N4CC5(C4)CN(S(C)(=O)=O)C5)n3)cc2)cc1)c1cc(Cl)c(OCCCl)c(C#N)c1 [Compound 105]
190 nM | CC(C)(c1ccc(-c2ccc(OCC3CC4(C3)CS(=O)(=O)C4)cc2)cc1)c1cc(Cl)c(OCCCl)c(C#N)c1 [Compound 106]
190 nM | CC(C)(c1ccc(-c2ccc(OCc3ccnc(N4CC5(CC(S(C)(=O)=O)C5)C4)n3)cc2)cc1)c1cc(Cl)c(OCCCl)c(C#N)c1 [Compound 121]
1280 nM | CC(C)(c1ccc(-c2ccc(OCc3ccnc(N4CC5(CC(=O)C5)C4)n3)cc2)cc1)c1cc(Cl)c(OCCCl)c(C#N)c1 [Compound 122]
650 nM | CC(C)(c1ccc(-c2ccc(OCc3ccnc(N=S4(=O)CCN(CC(F)(F)F)CC4)n3)cn2)cc1)c1cc(Cl)c(OCCCl)c(C#N)c1 [Compound 139]
530 nM | CC(C)(c1ccc(-c2ccc(OC3CC4CCC(C3)N4c3ccnc(P(C)(C)=O)n3)nc2)cc1)c1cc(Cl)c(OCCCl)c(C#N)c1 (stereo not drawn) [Compound 140]
900 nM | CC(C)(c1ccc(-c2ccc(OC3CCN(c4ccnc(N5CC(S(C)(=O)=O)C5)n4)CC3)cc2)cc1)c1cc(Cl)c(OCCCl)c(C#N)c1 [Compound 143]
740 nM | CC(C)(c1ccc(-c2ccc(OCc3ccnc(C4CNC4)n3)cc2)cc1)c1cc(Cl)c(OCCCl)c(C#N)c1 [Compound 144]
770 nM | CC(C)(c1ccc(-c2ccc(OC3CCN(c4ccnc(N5CC(S(C)(=O)=O)C5)n4)CC3)nc2)cc1)c1cc(Cl)c(OCCCl)c(C#N)c1 [Compound 148]
330 nM | CC(C)(c1ccc(-c2ccc(OCc3ccnc(P(C)(C)=O)n3)cc2)cc1)c1cc(Cl)c(OCC2CCC2)c(C#N)c1 [Compound 152]
780 nM | CC(C)(c1ccc(-c2cc(F)c(OCc3ccnc(N=S4(=O)CCOCC4)n3)cn2)cc1)c1cc(Cl)c(OCCCl)c(C#N)c1 [Compound 153]
260 nM | CC(C)(c1ccc(-c2ccc(OCc3ccnc(N=S4(=O)CCOCC4)n3)c(F)n2)cc1)c1cc(Cl)c(OCCCl)c(C#N)c1 [Compound 154]
480 nM | CC(C)(c1ccc(-c2ccc(OCc3scnc3P(C)(C)=O)cc2)cc1)c1cc(Cl)c(OCCCl)c(C#N)c1 [Compound 157]
390 nM | CC(C)(c1ccc(-c2ccc(OCc3ccnc(N4CC5(CC(O)C5)C4)n3)cc2)cc1)c1cc(Cl)c(OCCCl)c(C#N)c1 [Compound 165]
1210 nM | COC1CC2(C1)CN(c1nccc(COc3ccc(-c4ccc(C(C)(C)c5cc(Cl)c(OCCCl)c(C#N)c5)cc4)cc3)n1)C2 [Compound 166]
360 nM | CC(C)(c1ccc(-c2ccc(OCC3CCOCC3)cn2)cc1)c1cc(Cl)c(OCCCl)c(C#N)c1 [Compound 169]
1240 nM | CC(C)(c1ccc(-c2ccc(OC[C@@H]3CCOC3)cc2)cc1)c1cc(Cl)c(OCCCl)c(C#N)c1 [Compound 171]
1230 nM | CC(C)(c1ccc(-c2ccc(OCC3CN(C4CC4)C3)cc2)cc1)c1cc(Cl)c(OCCCl)c(C#N)c1 [Compound 172]
400 nM | CC(C)(c1ccc(-c2ccc(OCc3ccnc(P(C)(C)=O)n3)c(C#N)c2)cc1)c1cc(Cl)c(OCCCl)c(C#N)c1 [Compound 173]
920 nM | CC(C)(c1ccc(-c2ccc(OCC3CCOCC3)nc2)cc1)c1cc(Cl)c(OCCCl)c(C#N)c1 [Compound 184]
630 nM | CC(c1ccccc1)(c1ccc(-c2ccc(OCc3ccnc(P(C)(C)=O)n3)cc2)cc1)c1cc(Cl)c(OCCCl)c(C#N)c1 (stereo not drawn) [Compound 190]
